ChEMBL document CHEMBL1151051, “Structure-based design of novel calcineurin (PP2B) inhibitors” (Bioorg Med Chem Lett, 1997)

How the values were obtained:
[1] = Inhibition of Protein phosphatase 2B; design: species or system Homo sapiens; settings: read-out: Ki app
[2] = The compound was tested for the inhibition of Protein phosphatase-1 (PP1); settings: read-out: Ki app

SMILES | Ki [1] | Ki [2]
O=C(CCCC1CCCCC1)OC[C@H]1C[C@@H]2O[C@H]1[C@H]1C(=O)OC(=O)[C@H]12 | 1000 nM | 
O=C(CCCc1ccccc1)OC[C@H]1C[C@@H]2O[C@H]1[C@H]1C(=O)OC(=O)[C@H]12 | 1200 nM | 
O=C(Cc1ccccc1)OC[C@H]1C[C@@H]2O[C@H]1[C@H]1C(=O)OC(=O)[C@H]12 | 7400 nM | 
O=C(CCCCc1ccccc1)OC[C@H]1C[C@@H]2O[C@H]1[C@H]1C(=O)OC(=O)[C@H]12 | 2300 nM | 
O=C(OC[C@H]1C[C@@H]2O[C@H]1[C@H]1C(=O)OC(=O)[C@H]12)c1ccccc1 | 11000 nM | 
O=C1OC(=O)[C@@H]2[C@H]1[C@@H]1O[C@H]2C[C@@H]1COC(=O)[C@@H]1C[C@H]1c1ccccc1 | 500 nM | 4000 nM
O=C(OC[C@H]1C[C@@H]2O[C@H]1[C@H]1C(=O)OC(=O)[C@H]12)c1cccc(Oc2ccccc2)c1 | 1800 nM | 
O=C(Cc1c[nH]c2ccccc12)OC[C@H]1C[C@@H]2O[C@H]1[C@H]1C(=O)OC(=O)[C@H]12 | 2000 nM | 
O=C(CCc1ccccc1)OC[C@H]1C[C@@H]2O[C@H]1[C@H]1C(=O)OC(=O)[C@H]12 | 3700 nM | 
O=C(OC[C@H]1C[C@@H]2O[C@H]1[C@H]1C(=O)OC(=O)[C@H]12)c1ccc(Oc2ccccc2)cc1 | 1400 nM | 
O=C(O)[C@@H]1[C@H](C(=O)O)[C@H]2CC[C@@H]1O2 [ENDOTHALL] | 11500 nM | 4000 nM
